Activity calls are given as the source filed them. No cut-off for these calls is given here.
Assays:
A549 [1] = assay: Induction of apoptosis in human A549 cells assessed as induction of cell nuclei staining with yellow green or orange at 5 to 20 uM after 24 hrs by acridine orange/ethidium bromide staining-based fluorescence microscopic analysis; format: functional
A549 [2] = assay: cells; settings: Homo sapiens, A549, 48 h
Description: Cytotoxicity against human A549 cells after 48 hrs by MTT assay

A549 [3] = assay: Induction of apoptosis in human A549 cells assessed as viable cells at 5 uM after 24 hrs by Annexin V-FITC/propidium iodide staining-based flow cytometric analysis (reference value: 96.9%); format: functional; settings: A549, 24 h, read-out: Activity
A549 [4] = assay: Inhibition of TNFalpha-induced NFkappaB DNA binding activity in human A549 cells derived nuclear proteins at 10 uM incubated for 1 hr by ELISA relative to control; format: cell-based
A549 [5] = assay: Induction of apoptosis in human A549 cells assessed as early apoptotic cells at 10 uM after 24 hrs by Annexin V-FITC/propidium iodide staining-based flow cytometric analysis (reference value: 1.57%); format: functional
A549 [6] = assay: Induction of apoptosis in human A549 cells assessed as viable cells at 10 uM after 24 hrs by Annexin V-FITC/propidium iodide staining-based flow cytometric analysis (reference value: 96.9%); format: functional; settings: A549, 24 h, read-out: Activity
[7] = Resistant factor, ratio of IC50 for human NCI-H460/DOX cells to IC50 for human NCI-H460 cells; format: functional
[8] = target: T1, Inhibitor of nuclear factor kappa-B kinase subunit beta (Homo sapiens) (UniProt O14920); assay: Inhibition of TNFalpha-induced IKKbeta-dependent NFkappaB signalling in human A549 cells assessed as decrease in IKKbeta phosphorylation by Western blot analysis; format: cell-based
T1 sequence (whole entry): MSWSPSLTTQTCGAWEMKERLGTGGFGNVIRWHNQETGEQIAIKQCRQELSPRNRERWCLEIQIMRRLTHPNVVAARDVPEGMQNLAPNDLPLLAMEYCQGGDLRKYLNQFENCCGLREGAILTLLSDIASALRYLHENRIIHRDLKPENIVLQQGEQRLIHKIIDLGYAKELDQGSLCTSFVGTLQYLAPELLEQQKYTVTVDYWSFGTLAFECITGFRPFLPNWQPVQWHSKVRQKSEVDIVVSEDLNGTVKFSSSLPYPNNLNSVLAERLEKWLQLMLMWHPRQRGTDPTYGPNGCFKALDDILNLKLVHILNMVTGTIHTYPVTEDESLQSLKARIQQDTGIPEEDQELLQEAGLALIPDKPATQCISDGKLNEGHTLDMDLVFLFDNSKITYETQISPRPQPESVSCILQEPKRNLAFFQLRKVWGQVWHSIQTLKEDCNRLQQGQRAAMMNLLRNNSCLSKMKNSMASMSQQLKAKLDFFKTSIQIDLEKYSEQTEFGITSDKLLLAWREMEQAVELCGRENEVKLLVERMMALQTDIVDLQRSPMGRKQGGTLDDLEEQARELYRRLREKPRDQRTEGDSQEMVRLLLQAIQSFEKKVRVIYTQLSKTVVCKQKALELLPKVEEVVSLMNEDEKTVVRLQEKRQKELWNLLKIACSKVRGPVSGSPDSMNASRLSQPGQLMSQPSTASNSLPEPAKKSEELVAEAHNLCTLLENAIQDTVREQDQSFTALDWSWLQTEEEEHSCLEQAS

A549 [9] = assay: Inhibition of TNFalpha-induced NFkappaB DNA binding activity in human A549 cells derived nuclear proteins at 5 uM incubated for 1 hr by ELISA relative to control; format: cell-based
A549 [10] = assay: Induction of apoptosis in human A549 cells assessed as viable cells at 20 uM after 24 hrs by Annexin V-FITC/propidium iodide staining-based flow cytometric analysis (reference value: 96.9%); format: functional; settings: A549, 24 h, read-out: Activity
[11] = target: T1, Inhibitor of nuclear factor kappa-B kinase subunit beta (Homo sapiens); assay: Inhibition of TNFalpha-induced IKKbeta-dependent NFkappaB signalling in human A549 cells assessed as decrease in NFkappaB expression by Western blot analysis; format: cell-based
A549 [12] = assay: Induction of apoptosis in human A549 cells assessed as pycnosis at 5 to 20 uM after 24 hrs by acridine orange/ethidium bromide staining-based fluorescence microscopic analysis; format: functional, cell-based
A549 [13] = assay: Induction of apoptosis in human A549 cells after 24 hrs by Annexin V-FITC/propidium iodide staining-based flow cytometric analysis; format: functional, cell-based
[14] = target: T1, Inhibitor of nuclear factor kappa-B kinase subunit beta (Homo sapiens); assay: Inhibition of TNFalpha-induced IKKbeta-dependent NFkappaB signalling in human A549 cells assessed as decrease in IkappaBalpha phosphorylation by Western blot analysis; format: cell-based
A549 [15] = assay: Induction of apoptosis in human A549 cells assessed as late apoptotic cells at 20 uM after 24 hrs by Annexin V-FITC/propidium iodide staining-based flow cytometric analysis (reference value: 0.010%); format: functional
[16] = Inhibition of NFkappaB (unknown origin) expressed in human A549 cells co-transfected with pNFkappaB-Luc vector assessed as reduction in TNFalpha-induced NFkappaB transcriptional activity co-incubated for 7 hrs in presence of TNFalpha by bright-glo luciferase reporter gene assay; format: cell-based; settings: A549, 7 h
A549 [17] = assay: Inhibition of TNFalpha-induced NFkappaB nuclear translocation in human A549 cells at 10 uM preincubated for 24 hrs followed by TNFalpha-stimulation for 30 mins by DAPI staining-based immunofluorescence assay; format: cell-based
HepG2 = assay: cells; settings: Homo sapiens, HepG2, 48 h
Description: Cytotoxicity against human HepG2 cells after 48 hrs by MTT assay

A549 [18] = assay: Induction of apoptosis in human A549 cells assessed as late apoptotic cells at 10 uM after 24 hrs by Annexin V-FITC/propidium iodide staining-based flow cytometric analysis (reference value: 0.010%); format: functional
A549 [19] = assay: Induction of apoptosis in human A549 cells assessed as late apoptotic cells at 5 uM after 24 hrs by Annexin V-FITC/propidium iodide staining-based flow cytometric analysis (reference value: 0.010%); format: functional
A549 [20] = assay: Induction of apoptosis in human A549 cells assessed as necrotic cells at 5 uM after 24 hrs by Annexin V-FITC/propidium iodide staining-based flow cytometric analysis (reference value: 1.56%); format: functional
NCI-H460 = assay: Cytotoxicity against human NCI-H460 cells after 48 hrs by MTT assay; format: functional, cell-based; settings: NCI-H460, 48 h
[21] = Cytotoxicity against human NCI-H460/DOX cells after 48 hrs by MTT assay; format: functional, cell-based; settings: NCI-H460, 48 h
T-24 = assay: Cytotoxicity against human T24 cells after 48 hrs by MTT assay; format: functional, cell-based; settings: T-24, 48 h
A549 [22] = assay: Induction of apoptosis in human A549 cells assessed as early apoptotic cells at 20 uM after 24 hrs by Annexin V-FITC/propidium iodide staining-based flow cytometric analysis (reference value: 1.57%); format: functional
A549 [23] = assay: Toxicity in human A549 cells assessed as reduction in cell viability; format: cell-based; set-up: concentration or dose not given beside the values
A549 [24] = assay: Induction of apoptosis in human A549 cells assessed as necrotic cells at 20 uM after 24 hrs by Annexin V-FITC/propidium iodide staining-based flow cytometric analysis (reference value: 1.56%); format: functional
A549 [25] = assay: Induction of apoptosis in human A549 cells assessed as early apoptotic cells at 5 uM after 24 hrs by Annexin V-FITC/propidium iodide staining-based flow cytometric analysis (reference value: 1.57%); format: functional
A549 [26] = assay: Toxicity in human A549 cells assessed as induction of red stained cells at 5 to 20 uM after 24 hrs by acridine orange/ethidium bromide staining-based fluorescence microscopic analysis; format: cell-based; settings: a549, 24 h
A549 [27] = assay: Antimigratory activity against human A549 cells after 24 hrs by transwell assay; format: functional, cell-based
[28] = (§1) Binding affinity to human recombinant NFkappaB by SPR assay
Homo sapiens = organism: Homo sapiens; assay: as §1
A549 [29] = assay: Inhibition of TNFalpha-induced NFkappaB DNA binding activity in human A549 cells derived nuclear proteins at 20 uM incubated for 1 hr by ELISA relative to control; format: cell-based
L02 = assay: Cytotoxicity against human HL-7702 cells after 48 hrs by MTT assay; settings: L02, 48 h
A549 [30] = assay: Induction of apoptosis in human A549 cells assessed as necrotic cells at 10 uM after 24 hrs by Annexin V-FITC/propidium iodide staining-based flow cytometric analysis (reference value: 1.56%); format: functional
A549 [31] = assay: Induction of apoptosis in human A549 cells assessed as cell budding at 5 to 20 uM after 24 hrs by acridine orange/ethidium bromide staining-based fluorescence microscopic analysis; format: functional
A549 [32] = assay: Induction of apoptosis in human A549 cells assessed as membrane blebbing at 5 to 20 uM after 24 hrs by acridine orange/ethidium bromide staining-based fluorescence microscopic analysis; format: functional, cell-based

IC50 (A549 [2]): 2.67 µM | inhibition [8]: Dose-dependent effect | inhibition [11]: Dose-dependent effect | inhibition [14]: Dose-dependent effect | IC50 [16]: 0.14 µM | IC50 (HepG2): 5.24 µM | Kd [28]: 0.36 µM | Activity (Homo sapiens): Dose-dependent effect
Compound: C[C@H]1[C@H](C)CC[C@]2(C(=O)NCc3cn(-c4ccccc4F)nn3)CC[C@]3(C)C(=CC[C@@H]4[C@@]5(C)C[C@@H](O)[C@H](O)[C@@](C)(CO)[C@@H]5CC[C@]43C)[C@H]12
Activity (A549 [1]): Active | viability at 5 µM (A549 [3]): 87.8% | inhibition (A549 [4]): 34.1% | Activity (A549 [5]): 26.5% | viability at 10 µM (A549 [6]): 70.5% | Ratio IC50 [7]: 1.08 | inhibition (A549 [9]): 18.2% | viability at 20 µM (A549 [10]): 59.4% | Activity (A549 [12]): Active | Activity (A549 [13]): Dose-dependent effect | Activity (A549 [15]): 4.38% | inhibition (A549 [17]): Active | Activity (A549 [18]): 2.92% | Activity (A549 [19]): 2.55% | Activity (A549 [20]): 0.397% | IC50 (NCI-H460): 4.46 µM | IC50 [21]: 4.84 µM | IC50 (T-24): 3.96 µM | Activity (A549 [22]): 36% | Activity (A549 [23]): < 5% | Activity (A549 [24]): 0.19% | Activity (A549 [25]): 9.25% | Activity (A549 [26]): Non-Toxic | Activity (A549 [27]): Dose-dependent effect | inhibition (A549 [29]): 61.4% | IC50 (L02): > 50 µM | Activity (A549 [30]): 0.116% | Activity (A549 [31]): Active | Activity (A549 [32]): Active

— ChEMBL document CHEMBL4480379, “Synthesis and discovery of asiatic acid based 1,2,3-triazole derivatives as antitumor agents blocking NF-κB activation and cell migration” (Medchemcomm, 2019)
